This is an account of results in patent publication US20240336577A1, “PYRAZINE COMPOUND, AND METHOD OF PREPARATION AND USE THEREOF” (SHENZHEN OLIVE BIOPHARMACEUTICALS CO., LTD, priority 2020, published 2024).

For experiment [1], the system named is db/db mice. Kind of experiment: Urinary protein level in db/db mice, 90 d administration. It counts as in vivo. To be noted: once/d 90 d, OLB-1 11.7 mg/kg, OLB-2 11.67 mg/kg, FIG. 2. The protocol:
Mice of a normal control group and model mice were given normal saline 10 ml/kg/d, Losartan 10 mg/kg, TMP (5.0 mg/kg, 0.037 mmol/kg), OLB-1 (11.7 mg/kg, 0.037 mmol/kg), and OLB-2 (11.67 mg/kg, […]), at a volume of 10 mL/kg, once/d, for continuous administration of 90 d, urine protein levels were measured after urine collection. Data were presented as mean±SEM; n=6 per group. One-way ANOVA and multiple range test were adopted to show differences between the two groups. a, p<0.05 vs. db/db group; c, p<0.001 vs. db/db group.

In experiment [2] the test system is db/db mice. Kind of experiment: Glucose and lipid metabolism in db/db mice, 56 d administration. To be noted: once/d 56 d, TMP 5.0 mg/kg, mean±SEM, n=6; for Creatinine / Total cholesterol / Triglyceride / Urea: Losartan 10 mg/kg; for Creatinine / Total cholesterol / Triglyceride / Urea / Glucose determination / High-density lipoprotein cholesterol / Low-density lipoprotein cholesterol: OLB-1/OLB-2 13.32 mg/kg; for Glycated hemoglobin / Glucose determination / High-density lipoprotein cholesterol / Low-density lipoprotein cholesterol: metformin 225 mg/kg/d; for Glycated hemoglobin: OLB-1/OLB-2 13.32 mg/kg (0.037 mmol/kg). It counts as in vivo. The protocol: Mice of a normal control group and model mice were given normal saline 10 ml/kg/d, metformin hydrochloride enteric-coated tablets 225 mg/kg/d, Losartan 10 mg/kg, TMP (5.0 mg/kg, 0.037 mmol/kg), and OLB-1 and OLB-2 (13.32 mg/kg, 0.037 mmol/kg), at a volume of 10 mL/kg, once/d, for continuous administration of 56 d, blood lipids and blood glucose related indexes were measured after blood collection. Data were presented as mean±SEM; n=6 per group. One-way ANOVA and multiple range test were adopted to show differences between the two groups. a, p<0.05 vs. db/db group; c, p<0.001 vs. db/db group.

The subject of experiment [3] is SH—SY5Y neuroblastoma cells. Kind of experiment: LPS-induced inflammatory factors and oxidative stress-related proteins, ELISA kit. It counts as cell-based. Conditions: 1 μg/mL LPS 24 h, mean±SEM, n=8; for TNF-alpha: differentiated SH-SY5Y, supernatant. Here is the method: The SH—SY5Y cells were recovered and cultured, and the cells in the logarithmic growth phase were taken. After 24 h of incubation, SH—SY5Y neuroblastoma cells were treated with 1 μM all-trans retinoic acid to induce differentiation, and then inoculated into a 6-well culture dish for 24 h of incubation. The medium was treated with chemicals feed at 0.2 μM (L) or 1 μM (H) and 1 μg/mL LPS for 24 h, a supernatant medium was aspirated, and changes of inflammatory factors and oxidative stress-related proteins were measured by an ELISA kit. Data were presented as mean±SEM; n=8 per group. One-way ANOVA and multiple range test were adopted to show differences between the two groups. a, p<0.05 vs. LPS group; b, p<0.01 vs. LPS group; c, p<0.001 vs. LPS group.
For orientation: ELISA stands for enzyme-linked immunosorbent assay.

In the case of `Cc1nc(C)c(CNC(=O)OCCc2ccc(O)cc2)nc1C` [OLB-2], in the experiment on db/db mice [1], the urinary protein levels result was “significantly reduced urinary protein levels”. Besides, in the experiment with db/db mice [2], the Creatinine is 46.28 ± 2.76(b) μmol/L, the Total cholesterol is recorded as 7.38 ± 0.34(c) mM, the Triglyceride was 10.65 ± 0.54(b) mg/dL and the Urea was 7.48 ± 0.35(c) mmol/L. Also, in the experiment with db/db mice [2], the Glycated hemoglobin is reported as 595.38 ± 52.47(c) nmol/L, the Glucose determination was 26.61 ± 1.15(c) mM, the High-density lipoprotein cholesterol was 1.87 ± 0.18(b) mM and the Low-density lipoprotein cholesterol was 0.51 ± 0.03(c) mM. Further, in experiment [3] (compound 0.2 μM (L)), the GSH-Px is 7.93 ± 1.05(b) umol/mg, the IL1 is listed as 10.34 ± 1.89(a) pg/ml, the IL6 is on record as 11.05 ± 1.87(a) pg/ml and the MDA is reported as 15.75 ± 0.95(c) nmol/mg. In experiment [3] (compound 0.2 μM (L)), the SOD is recorded as 12.13 ± 0.65(b) nU/ml and the TNF-alpha is 9.92 ± 1.44(b) pg/ml. Also, in experiment [3] (compound 1 μM (H)), the GSH-Px is listed as 13.40 ± 1.24(c) umol/mg, the IL1 is reported as 7.37 ± 1.58(c) pg/ml, the IL6 was 8.19 ± 1.24(c) pg/ml and the MDA was 9.37 ± 0.73(c) nmol/mg. Further, in experiment [3] (compound 1 μM (H)), the SOD is recorded as 15.16 ± 1.52(c) nU/ml and the TNF-alpha is listed as 6.99 ± 1.31(c) pg/ml.

Regarding `Cc1nc(C)c(COC(=O)OCCc2ccc(O)cc2)nc1C` [OLB-1], the urinary protein levels result in the experiment on db/db mice [1] is given as “significantly reduced urinary protein levels”. In the experiment on db/db mice [2], the Creatinine is on record as 48.7 ± 3.68(a) μmol/L, the Total cholesterol is recorded as 8.36 ± 2.63(c) mM, the Triglyceride is given as 10.88 ± 0.92(b) mg/dL and the Urea is 8.03 ± 0.61(c) mmol/L. In the experiment with db/db mice [2], the Glycated hemoglobin was 643.06 ± 61.53(c) nmol/L, the Glucose determination is on record as 25.99 ± 4.46(c) mM, the High-density lipoprotein cholesterol is reported as 1.81 ± 0.15(b) mM and the Low-density lipoprotein cholesterol is reported as 0.69 ± 0.04(c) mM. Moreover, in experiment [3] (compound 0.2 μM (L)), the GSH-Px is recorded as 8.39 ± 0.69(c) umol/mg, the IL1 was 10.94 ± 1.48(a) pg/ml, the IL6 was 11.60 ± 1.39(a) pg/ml and the MDA is 16.15 ± 1.26(c) nmol/mg. In experiment [3] (compound 0.2 μM (L)), the SOD is recorded as 12.58 ± 0.72(b) nU/ml and the TNF-alpha was 9.64 ± 1.56(a) pg/ml. Moreover, in experiment [3] (compound 1 μM (H)), the GSH-Px is on record as 13.71 ± 0.84(c) umol/mg, the IL1 was 8.46 ± 1.33(b) pg/ml, the IL6 was 7.97 ± 1.61(c) pg/ml and the MDA is recorded as 10.51 ± 0.74(c) nmol/mg. Besides, in experiment [3] (compound 1 μM (H)), the SOD is on record as 16.76 ± 0.38(c) nU/ml and the TNF-alpha is 6.78 ± 1.67(c) pg/ml.
